We go through 7 compounds from patent publication US8951752B2, “N-demethyase genes and uses thereof” (priority 2011, dated 2015).

Values joined by “and” are separate entries in the source; they are usually repeats but may differ in a detail not shown here. Equal values may be shown once. Read-outs that look alike come from different tables or passages of the source.

The target in one test is T1, NdmA-His6 (Pseudomonas putida, UniProt H9N289).
T1 construct: made in house; host or cells: E. coli BL21(DE3)
T1 sequence (H9N289 1-351): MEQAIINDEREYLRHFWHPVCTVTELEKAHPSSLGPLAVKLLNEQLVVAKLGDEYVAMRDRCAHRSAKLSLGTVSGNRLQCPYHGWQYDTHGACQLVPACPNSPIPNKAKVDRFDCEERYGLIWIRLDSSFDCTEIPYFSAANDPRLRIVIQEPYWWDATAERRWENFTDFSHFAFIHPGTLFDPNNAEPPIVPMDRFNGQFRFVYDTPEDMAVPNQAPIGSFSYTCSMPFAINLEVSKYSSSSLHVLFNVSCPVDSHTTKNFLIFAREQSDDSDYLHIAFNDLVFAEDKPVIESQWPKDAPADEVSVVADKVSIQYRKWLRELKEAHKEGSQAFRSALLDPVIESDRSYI
Put plainly: Methylxanthine N-demethylase assay and kinetics, NdmA-His6 with His6-NdmD. The format is biochemical, Pseudomonas putida CBB5. The procedure: (§1) Methylxanthine N-demethylase activity assay contained, in 1-ml total volume, 0.5 mM methylxanthine, 1 mM NADH, 50 μM Fe(NH4)2(SO4)2, and an appropriate amount of NdmA-His6 or NdmB-His6 (7.4 μg-2.5 mg protein depending on substrate specificity) in 50 mM KPi buffer (pH 7.5). Approximately 4 U of partially purified reductase, prepared as described previously (Summers et al., 2011) or 59 U of purified His6-NdmD was added to reaction mixture. Catalase from bovine liver (4,000 U) was also added to reactions containing His6-NdmD. The reaction mixture was incubated at 30° C. with 300 rpm shaking on an incubating microplate shaker (VWR, Radnor, Pa.). Periodically, a small aliquot was sampled from the reaction mixture and mixed with equal volume of acetonitrile for quantifying concentrations of methylxanthines and N-demethylated products by HPLC. One unit of N-demethylase activity was defined as the consumption of one […] methylxanthine per minute.
(§2) Apparent kinetic parameters of NdmA-His6 and NdmB-His6 were determined by measuring the initial rate of disappearance (vo) of methylxanthines in 50 mM KPi buffer (pH 7.5) at 30° C. The initial substrate concentrations (ESI) used in these experiments were from 25 to 500 μM. Substrates were incubated with His6-NdmD plus either NdmA-His6 or NdmB-His6 under standard conditions for 15 minutes. At 1, 5, 10, and 15 minutes, samples were removed from the reaction mixtures to quantitate substrate concentrations by HPLC. Plots of substrate concentrations against time were used to determine the initial rates of disappearance of substrates which were linear over 15 minutes. The apparent kinetic parameters were determined from Michaelis-Menten plots of vo against [S] fitted with the equation

The next test concerns the target T2, NdmB-His6 (Pseudomonas putida, UniProt H9N290).
T2 construct: made in house; host or cells: E. coli BL21(DE3)
T2 sequence (H9N290 1-355): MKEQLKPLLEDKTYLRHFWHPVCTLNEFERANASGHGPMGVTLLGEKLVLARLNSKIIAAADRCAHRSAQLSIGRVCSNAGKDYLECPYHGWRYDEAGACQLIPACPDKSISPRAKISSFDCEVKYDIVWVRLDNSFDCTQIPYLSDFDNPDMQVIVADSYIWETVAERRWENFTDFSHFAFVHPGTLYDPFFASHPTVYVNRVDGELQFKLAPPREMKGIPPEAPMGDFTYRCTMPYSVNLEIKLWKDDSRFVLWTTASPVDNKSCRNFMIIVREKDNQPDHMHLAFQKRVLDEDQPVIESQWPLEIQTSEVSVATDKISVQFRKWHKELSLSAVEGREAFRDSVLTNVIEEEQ
Kind of test: Methylxanthine N-demethylase assay and kinetics, NdmB-His6 with His6-NdmD. Type of test: biochemical, Pseudomonas putida CBB5. The conditions noted are these: for N-demethylase activity: NdmB; for Km: 30° C., pH 7.5, ∞ where no activity. The procedure: as §1, §2

The target of test [1] is T3, N-demethylase (Ndm: NdmA and NdmB subunits) (Pseudomonas putida, UniProt H9N289+H9N290).
T3 construct: lane 3, natural Ndm purified from P. putida CBB5; made in house; host or cells: purified from the natural strain Pseudomonas putida CBB5 (DEAE, Phenyl and Q Sepharose); not recombinant
T3 sequence (H9N289 1-351): T1 sequence (H9N289 1-351)
T3 sequence (H9N290 1-355): T2 sequence (H9N290 1-355)
Kind of test: Methylxanthine N-demethylase activity assay with purified Ndm plus partially purified Ccr. Type of test: biochemical, Pseudomonas putida CBB5. The conditions noted are these: for Products identified: same products at 500 and 200 μM substrate; for Relative N-demethylase activity: relative to paraxanthine; for O-demethylation by Ndm: prolonged incubation. The procedure: Methylxanthine N-demethylase activity assay contained, in 1-mL total volume, 0.5 mM methylxanthine, 1 mM NADH, 50 μM Fe(NH4)2(SO4)2, and an appropriate amount of Ndm (0.08-7.5 mg protein, depending on purity of the protein) in 50 mM KPi buffer. Approximately 4 U of partially purified Ccr was added to reaction mixture when assaying Ndm in Phenyl Sepharose and Q Sepharose eluant-fractions (Ccr was not added to the enzyme reaction mixture when assaying Ndm activity in DEAE Sepharose eluant-fractions because Ccr co-eluted with Ndm). The reaction mixture was incubated at 30° C. with 300 rpm shaking on an incubating microplate shaker (VWR). Periodically, a small aliquot was sampled from the reaction mixture and mixed with equal volume of acetonitrile for quantifying concentrations of methylxanthines and N-demethylated products by HPLC. One unit of N-demethylase activity was defined as the consumption of one μmole methylxanthine per minute. When Ndm was coupled with the reductase and ferredoxin components of naphthalene dioxygenase of Pseudomonas sp. strain 9816 (Haigler & Gibson, 1990a; Haigler & Gibson, 1990b), 30 and 100 μg of the respective proteins were used. Spinach ferredoxin reductase and ferredoxin were also substituted for Ccr as described by Subramanian et al. (1979).
Determination of Kinetic Parameters. Apparent kinetic parameters of Ndm were determined by measuring the initial rate of disappearance (vo) of paraxanthine or 7-methylxanthine in 50 mM KPi buffer (pH 7.5) at 30° C. The paraxanthine and 7-methylxanthine concentrations ([S]) used in these experiments were from 20 to 500 μM. Substrates were incubated with Ndm and Ccr under standard conditions for 15 minutes. At 1, 5, 10, and 15 minutes, samples were removed from the reaction mixtures to quantitate substrate concentrations by HPLC. Plots of substrate concentrations against time were used to determine the initial rates of disappearance of substrates which were linear over 15 minutes. The apparent kinetic parameters were determined from Michaelis-Menten plots of Vo against [S] fitted with the equation
Determination of Oxygen Requirement. Oxygen consumption by Ndm during N-demethylation of paraxanthine was determined in a closed reaction vessel equipped with a Clarke-type oxygen electrode (Digitial Modell 0, Rank Brothers Ltd., Cambridge, England). The electrode was calibrated by using glucose oxidase (Sigma) and glucose for consumption of oxygen. Ndm activity assay was performed at 30° C. in a total volume of 1 ml of air-saturated 50 mM KPi buffer (pH 7.5) with 100 μM paraxanthine, 200 μM NADH, 50 μM Fe(NH4)2(SO4)2, 0.2 mg purified Ndm, and 4 U partially purified Ccr. The reaction was initiated by adding Ndm and partially purified Ccr after equilibration of all other reaction components for 3.3 minutes. After 13 minutes, a 100-μL aliquot was withdrawn from the reaction, immediately mixed with equal volume of acetonitrile to stop the enzyme reaction, and analyzed for N-demethylation product by HPLC. Background oxygen consumption, possibly due to NADH oxidase enzyme activity in the partially purified Ccr, was quantitated in control reactions containing all reaction components except paraxanthine.
Formaldehyde Determination. […] Twenty μL Nash reagent was added to 50 μl Ndm reaction sample plus 50 μl acetonitrile. This mixture was incubated at 51° C. for 12 minutes.

Test [2] concerns cell extracts prepared from P. putida CBB5. Kind of test: NADH-dependent N-demethylase activity of CBB5 cell extracts. The format is biochemical, Pseudomonas putida CBB5. The conditions noted are these: 0.5 mM substrate, 7.2 mg mL^−1 protein.
Test [3] concerns the target T4, Caffeine dehydrogenase (Cdh) from CBB1 (Pseudomonas sp., UniProt D7REY3).
T4 sequence (D7REY3 1-791): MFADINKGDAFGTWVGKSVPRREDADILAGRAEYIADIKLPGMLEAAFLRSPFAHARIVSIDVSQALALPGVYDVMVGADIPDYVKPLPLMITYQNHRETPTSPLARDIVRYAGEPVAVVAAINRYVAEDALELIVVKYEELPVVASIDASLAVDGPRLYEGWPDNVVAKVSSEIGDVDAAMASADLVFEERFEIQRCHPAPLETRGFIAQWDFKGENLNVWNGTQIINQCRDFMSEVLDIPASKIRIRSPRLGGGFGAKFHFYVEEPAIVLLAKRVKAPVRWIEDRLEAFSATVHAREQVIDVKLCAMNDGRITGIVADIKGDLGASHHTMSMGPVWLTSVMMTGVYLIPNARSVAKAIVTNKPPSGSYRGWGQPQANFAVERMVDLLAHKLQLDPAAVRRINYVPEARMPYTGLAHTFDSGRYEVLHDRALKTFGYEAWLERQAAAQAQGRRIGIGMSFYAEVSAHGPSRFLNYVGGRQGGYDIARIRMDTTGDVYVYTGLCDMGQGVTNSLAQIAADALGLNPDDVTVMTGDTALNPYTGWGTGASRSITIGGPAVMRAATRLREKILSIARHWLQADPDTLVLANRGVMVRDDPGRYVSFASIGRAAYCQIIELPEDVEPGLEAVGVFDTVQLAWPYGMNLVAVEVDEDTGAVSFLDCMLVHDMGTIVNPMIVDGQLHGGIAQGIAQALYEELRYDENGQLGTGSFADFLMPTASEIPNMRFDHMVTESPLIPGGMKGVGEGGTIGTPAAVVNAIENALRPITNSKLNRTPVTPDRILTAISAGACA
T4 sequence (D7REY4 1-295 partner): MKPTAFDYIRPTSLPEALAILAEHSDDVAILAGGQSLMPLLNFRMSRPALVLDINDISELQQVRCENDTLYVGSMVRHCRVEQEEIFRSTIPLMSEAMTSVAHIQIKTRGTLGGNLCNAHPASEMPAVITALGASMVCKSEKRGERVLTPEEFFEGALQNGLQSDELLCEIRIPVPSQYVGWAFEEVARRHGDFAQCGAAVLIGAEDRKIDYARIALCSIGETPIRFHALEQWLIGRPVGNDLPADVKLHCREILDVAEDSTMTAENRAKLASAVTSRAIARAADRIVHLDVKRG
T4 sequence (D7REY5 1-167 partner): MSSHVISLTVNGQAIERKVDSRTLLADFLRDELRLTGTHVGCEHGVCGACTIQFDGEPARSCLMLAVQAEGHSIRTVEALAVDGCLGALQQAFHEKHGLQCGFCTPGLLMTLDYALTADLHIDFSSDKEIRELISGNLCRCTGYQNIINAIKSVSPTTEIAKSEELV
The settings on record: cited from earlier work.

The mark [4] stands for this setting: 100 μM paraxanthine, 0.2 mg Ndm, 4 U Ccr, after 13 minutes.

In the case of `Cn1c(=O)[nH]c2nc[nH]c2c1=O` [1-methylxanthine], the “catalytic efficiency relative to theophylline” value at NdmA-His6 (NdmA) is reported as “two orders of magnitude lower”. The Product entry on NdmA-His6 (NdmA-His6) is on record as “Xanthine”. The “N-demethylase activity” value at NdmB-His6 is given as “no activity”. Besides, on NdmB-His6 (NdmB-His6), the Km entry is “∞”.

`Cn1c(=O)[nH]c(=O)c2[nH]cnc21` [3-Methylxanthine, 3-methylxanthine]: the “N-demethylase activity” value at NdmA-His6 (NdmA) was “inactive”. Further, the Km entry on NdmA-His6 (NdmA-His6, 30° C., pH 7.5, ∞ where no activity) is reported as “∞”. In test [1], the Products identified result is reported as “xanthine”. Further, the “Relative N-demethylase activity” value in test [1] (substrate conc. 200 μM) is reported as 68.9 ± 2.6; in test [1] (substrate conc. 500 μM) it was 55.2 ± 6.0. The Product entry at NdmB-His6 (NdmB-His6) is “Xanthine”.

In the case of `Cn1c(=O)[nH]c2ncn(C)c2c1=O` [Paraxanthine, 1,7-dimethylxanthine], in test [2] (0.5 mM NADH), the “time to complete utilization” value is listed as “about 20 minutes”. In addition, the “N-demethylation by NdmC fraction” value in the test on NdmC is given as “not N-demethylated”. Besides, in test [1] (setting [4]), the “oxygen consumed during N-demethylation” value was 79.5 µM. Also, the “paraxanthine N-demethylated” value in test [1] (setting [4]) is 60.2 µM. Further, the Products identified entry in test [1] was “xanthine and 7-methylxanthine,”. For the same compound, the “Relative N-demethylase activity” value was 100.0 ± 3.7 in test [1] (substrate conc. 200 μM) and 100.0 ± 3.1 in test [1] (substrate conc. 500 μM). For the same compound, the “N-demethylase activity” value on NdmB-His6 is “no activity”. Besides, on NdmB-His6 (NdmB-His6), the Km result is “∞”.

Consider `Cn1c(=O)c2[nH]cnc2n(C)c1=O` [Theophylline, 1,3-dimethylxanthine], for which, in test [2], the “degradation rate compared with paraxanthine” value is “significantly slower”. Also, the Products identified in test [1] was 1- & 3-methylxanthine, and xanthine. Moreover, the “Relative N-demethylase activity” value in test [1] (substrate conc. 200 μM) came out at 14.2 ± 1.6; in test [1] (substrate conc. 500 μM), 17.6 ± 1.0. Besides, the “activity of Cdh” value was “no activity” in test [3] and 5% in test [3] (substrate specificity study).

For the compound `COc1cc(C(=O)O)ccc1O` [vanillate], the “O-demethylation by Ndm” value in test [1] is “did not catalyze O-demethylation”.

As to `COc1cc(C=O)ccc1O` [vanillin], the “O-demethylation by Ndm” value in test [1] is listed as “did not catalyze O-demethylation”.

On to `O=c1[nH]c(=O)c2[nH]cnc2[nH]1` [xanthine], for which the “product formed from paraxanthine” value in test [1] (7.4 mU / 7.4 units of Ndm, 90 minutes) is 193.7 ± 4.0 µM and 193.7 ± 14.0 µM. The N-demethylation product present in test [1] (from paraxanthine, after 13 minutes) is around 20.3 µM. Also, in test [3], the “activity of Cdh” value is “no activity and none”.
